Assay results reported in paper PMC4520450, “Procyanidins Negatively Affect the Activity of the Phosphatases of Regenerating Liver” (PLoS ONE, 2015).

What was measured:
PRL-2 = biological target: T1, PRL-2 (Homo sapiens, UniProt Q12974); test: DiFMUP phosphatase activity assay for PRLs; type: biochemical; conditions: 50 nM PRL-2, 30 min preincubation, 25°C, 24 μM DiFMUP; mean ± SEM (n = 3–5); read-out: IC50 (Ki) PRL-2
T1 construct: His-TEV (cleaved yes); made in house
T1 sequence (Q12974 1-167): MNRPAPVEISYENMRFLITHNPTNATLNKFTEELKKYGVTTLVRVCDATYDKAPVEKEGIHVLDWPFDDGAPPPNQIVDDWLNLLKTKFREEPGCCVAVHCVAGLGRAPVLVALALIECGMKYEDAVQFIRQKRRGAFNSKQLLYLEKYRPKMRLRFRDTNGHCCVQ
Protocol: Fig 2 Effect of polyphenolic compounds 8 (A), 9 (B), 10 (C) and 11 (D) on the phosphatase activity of PRL-1, PRL-2, PRL-3, PP1, and PP2A. Proteins were incubated for 30 min with 0–1000 μM of the corresponding procyandin 8–11. Phosphatase activity was measured in the presence of DiFMUP at 25°C using the concentration corresponding to the KM of each protein. The KM for PRLs was determined separately (PRL-3 = 21 μM, PRL-2 and PRL-1 = 24 μM). The KM for PP1 (91 μM) and for PP2A (100 μM) was taken from the literature. Protein concentrations are 50 nM for all PRLs and 2 mU for PP1 and 0.05 U for PP2A (see the Experimental Procedures). Phosphatase activity in the absence of inhibitors was set as 100%. Data represent means ± standard errors of the mean (n = 3–5).
DiFMUP assay for PRLs: In a final reaction volume of 100 μL the PRLs (50 nM final concentration) were incubated with decreasing concentrations of the inhibitory polyphenols for 30 minutes at 25°C. The buffer conditions were 108 mM TrisCl (pH 7.5), Triton 0.05% (v/v), DTT 27.0 mM, NaCl 811 mM. After the incubation time 20 μL DiFMUP (6,8-Difluoro-4-methylumbelliferyl phosphate) was added to reach a final concentration of 21 μM for PRL-3 and 24 μM for PRL-1 and PRL-2. On a Tecan safire2 (Tecan, Salzburg, Austria) plate reader dephosphorylation of the substrate to its fluorescent product was monitored by following the emission at 358 nm with excitation at 452 nm for 20 minutes. All measurements were done in triplicates, and the experiments were repeated at least three times. The slopes of the initial phases were obtained by linear regression of the data points. The normalized reaction rates were plotted versus the log of the inhibitor concentrations and the IC50 values were obtained by fitting the curves using the one site competition model of GraphPad Prism (GraphPad Software, Version 5). KM values were determined by measuring reaction kinetics of substrate dilution series. Initial velocities were plotted against DiFMUP concentration and the data was analyzed by Michaelis-Menten kinetics curve fitting of GraphPad Prism. A final DMSO content of 0.4% was maintained for the monomeric catechins. Due to the high water solubility of the procyanidins DMSO was not required and measurements were done in assay buffer only.

[1] = tested on: HEK293 cells (empty vector, PRL-1 and PRL-3 overexpressing); test: Cytotoxicity by flow cytometry with propidium iodide; type: cell-based; conditions: 24 h
Text: To study the effects of procyanidins on PRL-1 and PRL-3 in cells, the trimeric catechin (procyanidin C2, 9) was chosen as a representative example due to its strong inhibitor activity in vitro toward both PRL-s and its smaller size compared to the higher oligomers, which could influence cell permeability. HEK293 cells stably overexpressing PRL-1 and PRL-3 were chosen as model cell line. As a control cell line, HEK293 cells transfected with the empty vector were utilized (see the Experimental Procedures). To avoid false positive results due to cell death, first cell viability was studied in a concentration dependent manner by using flow cytometry. Therefore, cells were treated with different concentrations of compound 9 for 24 h, harvested, and then the ratio of living to dead cells was determined using propidium iodide (Fig 5).
Fig 5 Cytotoxicity of procyanidin C2 (9) in HEK293 cells. Cells were treated with 50, 150 or 300 μM of 9 in the growth medium for 24 h. Cells were harvested, resuspended in PBS buffer and incubated with propidium iodide (1 mg/mL) for 5 min on ice. 10,000 events were set for the number of living cells. The number of living cells was divided by the number of total cells counted and given as percentage of cell survival. Data represent means ± standard errors of the mean (n = 3).
Fig 7 A) Cytotoxicity of procyanidin B3 (8) in HEK293 cells. Cells were treated with 50, 75 or 100 μM of 8 in the growth medium for 24 h. Cells were harvested, resuspended in PBS buffer and incubated with propidium iodide (1 mg/mL) for 5 min on ice. 10,000 events were set for the number of living cells. The number of living cells was divided by the number of total cells counted and given as percentage of cell survival. Data represent means ± standard errors of the mean (n = 3). B) Wound healing abilities of PRL-1 or PRL-3 overexpressing or empty vector control HEK293 cell lines were analyzed in the presence of compound 8 or medium only. Cells were seeded at a concentration of 800,000 cells per insert and procyanidin B3 (8) was added at a concentration of 50 and 75 μM. Speed of migration is shown for combined data from different replicates, as mean ± SD (n = 40–77). Two-sided t-tests with Welsh correction were performed for p < 0.05. ns = not significant;***: < 0.001; **: < 0.01; *: < 0.05.
Flow cytometry was used to determine the ratio of living to dead cells compared to the control. HEK293 empty vector and PRL-3 overexpressing cells were seeded in a transparent 6-well plate with 400,000 cells/well in DMEM medium without Phenol red, supplemented with 10% FBS, 1% glutamine and 0.2% hygromycin and blasticidin. For induction of PRL-3 expression, 0.1% tetracycline was added. After 24 hours incubation at 37°C, procyanidins 8 or 9 dissolved in growth medium and growth medium as a control were added to the respective wells in the indicated final concentrations and incubated for another 24 hours. Then, the medium was removed and collected in Eppendorf tubes, centrifuged for 5 min at 500 rpm and the supernatant removed. Then 1 mL of PBS (10%) was added to each well and the cells detached with a cell scraper. […] After thorough mixing the cell suspension was injected into a LSR- Fortessa Bench Top Analyzer (Beckton Dickinson) and the number of living and dead cells counted. […] The number of living cells was divided by the number of total cells counted and given as percentage of cell survival.

| SMILES | IC50 (PRL-2) [µM] | cytotoxic effects ([1]; 50, 75 and 100 μM, all three cell lines) | concentration up to which not cytotoxic [1] | concentration up to which not cytotoxic ([1]; human) |
| --- | --- | --- | --- | --- |
| Oc1cc(O)c2c(c1)O[C@H](c1ccc(O)c(O)c1)[C@@H](O)[C@@H]2c1c(O)cc(O)c2c1O[C@H](c1ccc(O)c(O)c1)[C@@H](O)C2 [Procyanidin B3 (8), Procyanidin B3] | 103 ± 1.1 | did not show any cytotoxic effects | at least 100 μM | – |
| Oc1cc(O)c2c(c1)O[C@H](c1ccc(O)c(O)c1)[C@@H](O)[C@@H]2c1c(O)cc(O)c2c1O[C@H](c1ccc(O)c(O)c1)[C@@H](O)[C@@H]2c1c(O)cc(O)c2c1O[C@H](c1ccc(O)c(O)c1)[C@@H](O)C2 [Procyanidin C2 (9), Procyanidin C2] | 15.2 ± 1.4 | – | – | up to 50 μM |
